Data reported in patent US20150087619A1, “METHOD OF MITIGATING VIRUS ASSOCIATED END-ORGAN DAMAGE” (CHIMERIX, INC., priority 2012, published 2015).
Values belong to the compound of their own block, whether it stands above or below them.

How the values were obtained:
[1] = test system: CMV; test: In vitro antiviral activity in cell culture; type: cell-based; settings: Human betaherpesvirus 5
[2] = test system: HHV-6(B); test: In vitro antiviral activity in cell culture; type: cell-based
[3] = test system: AdV; test: In vitro antiviral activity in cell culture; type: cell-based
[4] = test system: EBV; test: In vitro antiviral activity in cell culture; type: cell-based; settings: human gammaherpesvirus 4
[5] = test system: HSV-1; test: In vitro antiviral activity in cell culture; type: cell-based; settings: HSV-1, cell culture; for EC50: Human alphaherpesvirus 1
[6] = test system: BKV; test: In vitro antiviral activity in cell culture; type: cell-based
[7] = test system: VZV; test: In vitro antiviral activity in cell culture; settings: for EC50: Human alphaherpesvirus 3, read-out: EC50s
[8] = test system: BKV; test: Study HDP-CDV-201: hematuria and BKV bladder events; type: in vivo, human
Method: A multicenter, randomized, double-blind, placebo-controlled, dose-escalation study of safety, tolerability, and ability of HDP-CDV to prevent or control […], and EBV infection and associated disorders was conducted. During enrollment of patients in the study, urine samples of candidate patients were routinely screened for BKV. Plasma was collected from patients who tested positive for BKV viruria in urine, and AdV, EBV and BKV level in the plasma was evaluated.

[9] = test system: BKV; test: Study HDP-CDV-201: serum creatinine as marker of renal function
[10] = BK positive during treatment (1/93)
[11] = BK positive during treatment, N=93

Compound: Nc1nc(O)c2ncn(COC(CO)CO)c2n1 [Ganciclovir]
EC50 [1]: 3.8 µM
EC50 [2]: 5.9 µM
EC50 [3]: 4.5 to 33 µM
EC50 [4]: 0.9 µM
EC50 [5]: 0.007 µM
EC50 [6]: > 200 µM
EC50 [7]: 1.3 µM

EC50 [3]: > 100 µM
EC50 [6]: > 200 µM
Compound: Nc1nc2c(ncn2COCCO)c(=O)[nH]1 [Acyclovir]

Compound: Nc1ccn(C[C@@H](CO)OCP(=O)(O)O)c(=O)n1 [Cidofovir]
EC50 [1]: 0.4 µM
EC50 [2]: 5.4 µM
EC50 [3]: 1.3 µM
EC50 [4]: > 108 µM
EC50 [5]: 5.5 µM
EC50 [6]: 115 µM
EC50 [7]: 0.5 µM

Compound: CC(C)Nc1nc2cc(Cl)c(Cl)cc2n1[C@H]1O[C@@H](CO)[C@H](O)[C@@H]1O [Maribavir]
EC50 [1]: 0.31 µM
EC50 [4]: 0.63 µM
EC50s [5]: No Activity
EC50s ([7]; VZV, cell culture): No Activity

Compound: CCCCCCCCCCCCCCCCOCCCOP(=O)(O)CO[C@H](CO)Cn1ccc(N)nc1=O [HDP-CDV]
1 + HEME CONFIRMED; NEW ONSET ([8]; BK negative throughout (4/78)): 5.1%
1 + HEME CONFIRMED; NEW ONSET ([8]; BK positive during treatment (4/93)): 4.3%
>120 LAST; 1 + HEME NEW ONSET; CONFIRMED; >25% INC CREATININE ([9]; BK negative throughout): 1.3%
CR >120 LAST VALUE; 1 + HEME CONFIRMED NEW ONSET ([9]; BK negative throughout (1/78)): 1.3%
>120; NEW; >25% INCREASE ([9]; BK negative throughout (6/78)): 7.7%
CREATININE >120 LAST VALUE AND NEW FROM BASELINE ([9]; BK negative throughout (6/78)): 7.7%
creatinine elevations >120 microM and =>25% increase over baseline ([9]; BK negative throughout (7/78), placebo 7.4%): 9.0%
CR >120 LAST VALUE ([9]; BK negative throughout (10/78)): 12.8%
creatinine elevations (>120 last and >25% increase from baseline) OR 1+ heme, confirmed, new onset ([9]; BK negative throughout (11/78), placebo 11.1%): 14.1%
# (of CR >120 at baseline) THAT INCREASED >25% ([9]; BK negative throughout, N=78): 1
# (of CR >120 at baseline) THAT INCREASED DURING TREATMENT ([9]; BK negative throughout, N=78): 1
>120 LAST; 1 + HEME NEW ONSET; CONFIRMED; >25% INC CREATININE [9, 10]: 1.1%
CR >120 LAST VALUE; 1 + HEME CONFIRMED NEW ONSET [9, 10]: 1.1%
>120; NEW; >25% INCREASE ([9]; BK positive during treatment (7/93)): 7.5%
end of treatment creatinine elevations >120 microM and =>25% over baseline ([9]; BK positive during treatment (7/93), placebo 18.75%): 7.5%
CREATININE >120 LAST VALUE AND NEW FROM BASELINE ([9]; BK positive during treatment (10/93)): 10.8%
creatinine elevations (>120 last and >25% increase from baseline) OR 1+ heme, confirmed, new onset ([9]; BK positive during treatment (11/93), placebo 37.5%): 11.8%
CR >120 LAST VALUE ([9]; BK positive during treatment (14/93)): 15.1%
# (of CR >120 at baseline) THAT INCREASED >25% [9, 11]: 0
# (of CR >120 at baseline) THAT INCREASED DURING TREATMENT [9, 11]: 0
